How the values were obtained:
[1] = test system: fusion protein EdR5A/5B (i.e., the protein encoded by VgRXR-5A/5B); assay: Ligand-induced activation of the VgRXR-5A/5B fusion protein, luciferase reporter in COS cells without protease; assay type: cell-based
Protocol: (§1) COS African green monkey kidney cells were plated at approximately 150,000 cells/well in a 6-well plate. The next day, approximately 3.6 μg plasmid DNA was dissolved in 100 μl of Dulbecco's modified Eagle's media-Gibco BRL (DMEM), combined with 29 μl of Superfect reagent (Qiagen), and then mixed by pipetting. The mixture was incubated at room temperature for ten minutes.
(§2) The amounts of DNA typically used in each experiment was as follows: 0.6 μg of pIND-Luc, 0.6 μg of pVgRXR-5A/5B or pVgRXR-5A**5B, and 0-2.4 μg of pSRα-NS3-4A or pSRα-NS3-4A(S1165A) or pSRα.
(§3) Next 600 μl of DMEM with v/v 10% fetal bovine serum (10% FBS-DMEM) was added to the DNA mixture and mixed by pipetting. The cells in the 6-well plate were washed with 2.5 ml phosphate-buffered saline (PBS). The PBS was removed from the cells and replaced by the DNA mixture. The cells were incubated in the DNA mixture for three hours at 37° C. in a 5% CO2 incubator.
After incubation, the cells were washed with PBS. The PBS was removed and 10% FBS-DMEM was added to the cells. The cells were incubated in 10% FBS-DMEM overnight at 37° C. in a 5% CO2 incubator.
On the next day, an exogenous ligand was added to the cells to induce transcription of the reporter gene. Specifically, the 10% FBS-DMEM was aspirated off the cells and replaced with a 10% FBS-DMEM solution containing a concentration of 1-10 μM muristerone A or 1-10 μM ponasterone A (Invitrogen, United Kingdom). In some cases, a protease inhibitor dissolved in dimethylsulfoxide(DMSO) was also added to the cells for a final concentration of 1-40 μM. The cells were incubated with muristerone A or ponasterone A for 24 hours at 37° C. in a 5% CO2 incubator.
The following day, the cells were washed with PBS. The activity of the luciferase protein was measured using a luciferase assay kit (Promega). Specifically, the cells were lysed in 250 μl of Cell Culture Lysis Reagent. The cells were scraped from the plate and transferred to a microfuge tube. The extract was spun at 12,000×g for 5 seconds. Twenty microliters of each sample was added to 100 μl of Luciferase Assay Reagent. The light produced by the reaction of the luciferase with the Reagent was measured in a luminometer and was reported as relative light units (RLU).
The plasmid pIND-Luc (0.6 μg) was cotransfected with pVgRXR-5A/5B (0.6 μg) in the absence or presence of 1.8 μg of pSRαNS3-4A. On the following day, the cells were incubated with varying amounts of ponasterone A, a ligand which induces the neterodimerization of ecdysone receptor with the mammalian […], RXR. The cells were lysed and assayed for luciferase activity as described previously. The results are depicted in FIG. 7. […]

[2] = test system: pIND-Luc luciferase reporter; assay: Muristerone A-induced transactivation of pIND-Luc by expressed fusion proteins in COS cells; assay type: cell-based, African green monkey; settings: 1 μM muristerone A
Protocol: as §1, §2, §3
After incubation, the cells were washed with PBS. The PBS was removed and 10% FBS-DMEM was added to the cells. […]
The following day, the cells were washed with PBS. The activity of the luciferase protein was measured using a luciferase assay kit (Promega). […] The light produced by the reaction of the luciferase with the Reagent was measured in a luminometer and was reported as relative light units (RLU). […]

Question: For CC(C)CC[C@@H](O)[C@](C)(O)[C@H]1CC[C@@]2(O)C3=CC(=O)[C@@H]4C[C@@H](O)[C@@H](O)C[C@]4(C)[C@H]3CC[C@]12C [ponasterone A], which “activation of the fusion protein” value ([1]; absence of the protease NS3-4A) is on record?
Answer: effective at activating the fusion protein

Question: What about the “induction of transcription compared with muristerone A” value ([1]; in these assays) of the same molecule?
Answer: equally effective

Question: And the “ponasterone A concentration giving greatest activation of the fusion protein” value ([1]; tested at 1, 3.3, 10, 33, 100 μM, COS cells)?
Answer: 3.3 to 10 µM

Question: C[S+](C)[O-] [DMSO, dimethylsulfoxide] was tested. Which “effect on ponasterone A-induced luciferase activity” value ([1]; DMSO concentrations up to 1% (v/v), 5 μM ponasterone A, with or without pSRαNS3-4A) did it give?
Answer: little or no effect

B1: pVgRXR-5A(Stop)5B: control fusion protein with tandem stop codons in the 5A/5B cleavage site (SEQ ID NO:22) (protein)
chain: MAPPTDVSLGDELHLDGEDVAMAHADALDDFDLDMLGDGDSPGPGFTPHDSAPYGALDMADFEFEQMFTDALGIDEYGGKLLGTGADTEDVVCC
Question: Which “muristerone A-induced luciferase activity of the expressed fusion protein” value ([2]; 24 hours, no protease, FIG. 4) does the source give for B1 here?
Answer: negligible activity

B2: VgRXR: Invitrogen vector product: modified ecdysone receptor/VP16 fusion (VgEcR) plus RXR (protein)
chain: TPTTPLHLQQNLGGAGGGGIGGMGILHHANGTPNGLIGVVGGGGGVGLGVGGGGVGGLGMQHTPRSDSVNSISSGRDDLSPSSSLNGYSANESCDAKKSKKGPAPRVQEELCLVCGDRASGYHYNALTCEGCKGFFRRSVTKSAVYCCKFGRACEMDMYMRRKCQECRLKKCLAVGMRPECVVPENQCAMKRREKKAQKEKDKMTTSPSSQHGGNGSLASGGGQDFVKKEILDLMTCEPPQHATIPLLPDEILAKCQARNIPSLTYNQLAVIYKLIWYQDGYEQPSEEDLRRIMSQPDENESQTDVSFRHITEITILTVQLIVEFAKGLPAFTKIPQEDQITLLKACSSEVMMLRMARRYDHSSDSIFFANNRSYTRDSYKMAGMADNIEDLLHFCRQMFSMKVDNVEYALLTAIVIFSDRPGLEKAQLVEAIQSYYIDTLRIYILNRHCGDSMSLVFYAKLLSILTELRTLGNQNAEMCFSLKLKNRKLPKFLEEIWDVHAIPPSVQSHLQITQEENERLERAERMRASVGGAITAGIDCDSASTSAAAAAAQHQPQPQPQPQPSSLTQNDSQHQTQPQLQPQLPPQLQGQLQPQLQPQLQTQLQPQIQPQPQLLPVSAPVPASVTAPGSLSAVSTSSEYMGGSAAIGPITPATTSSITAAVTASSTTSAVPMGNGVGVGVGVGGNVSMYANAQTAMALMGVALHSHQEQLIGGVAVKSEHSTTA
modifications: left off: large carriers
notes: Invitrogen vector product: modified ecdysone receptor/VP16 fusion (VgEcR) plus RXR
Question: For B2, which “change in luciferase activity when coexpressed with the protease NS3-4A” value ([2]; increasing amounts of pSRαNS3-4A) is on record?
Answer: little or no change

From patent publication US6528276B1, “Fusion proteins, DNA molecules, vectors, and host cells useful for measuring protease activity” (priority 1998, dated 2003)
